In patent US9060515B2, “Heterocyclic urea compounds” (BIOTA EUROPE LTD, priority 2011, dated 2015):
In brackets after ≈: the same amount, converted by molar mass.

Columns and labels:
S. aureus (ATCC 29213) = assay: Antibacterial susceptibility testing (MIC, broth microdilution or agar dilution), S. aureus; format: cell-based; conditions: Staphylococcus aureus, ATCC29213; read-out: S. aureus (ATCC 29213) minimal inhibitory concentration (MIC)
Protocol: (§1) Compounds of the invention were tested for antimicrobial activity by susceptibility testing in liquid or on solid media. MICs for compounds against each strain were determined by the broth microdilution or agar dilution method according to the guidelines of the Clinical Laboratories and Standards Institute, formerly the National Committee for Clinical Laboratory Standards (Clinical Laboratories and Standards Institute. Methods for Dilution Antimicrobial Susceptibility Tests for Bacteria That Grow Aerobically; Approved Standard—Seventh Edition. Document M7-A7. CLSI, Wayne, Pa., 2006; Clinical Laboratories and Standards Institute. The Gram positive bacterial strains tested include S. aureus (Staphylococcus aureus (Isolate ID ATCC 29213)), E. faecalis (Enterococcus faecalis (Isolate ID ATCC 29212)) and S. pyogenes (Streptococcus pyogenes (Isolate ID ATCC 51339)). The Gram negative bacterial strains tested include H. influenzae (Haemophilus influenzae (Isolate ID ATCC 49247)).

S. pyogenes (ATCC 51339) = assay: Antibacterial susceptibility testing (MIC, broth microdilution or agar dilution), S. pyogenes; format: cell-based; conditions: Streptococcus pyogenes, ATCC51339; read-out: S. pyogenes (ATCC 51339) minimal inhibitory concentration (MIC)
Protocol: as §1

Compound	MIC (S. aureus (ATCC 29213)) [µg/mL]	MIC (S. pyogenes (ATCC 51339)) [µg/mL]
CCNC(=O)Nc1cc(Nc2ccccc2)c(C(=O)Nc2ccc(Oc3ccc(F)cc3)nc2)cn1 [Compound 82]	2 (≈ 4.11 µM)	8 (≈ 16.4 µM)
CCNC(=O)Nc1cc(Nc2ccc(CC(=O)OCC)cc2)c(C(=O)Nc2cccnc2)cn1 [Compound 110, ethyl 2-(4-(2-(3-ethylureido)-5-(pyridin-3-ylcarbamoyl)pyridin-4-ylamino)phenyl)acetate]	4 (≈ 8.65 µM)	4 (≈ 8.65 µM)
CCNC(=O)Nc1cc(Nc2ccn(C)n2)c(C(=O)Nc2cccnc2)cn1 [Compound 116, 6-(3-ethylureido)-4-(1-methyl-1H-pyrazol-3-ylamino)-N-(pyridin-3-yl)nicotinamide]	4 (≈ 10.5 µM)	≤ 1
CCNC(=O)Nc1cc(Nc2ccccc2)c(C(=O)Nc2ccc(F)cc2)cn1 [Compound 55, 6-(3-ethylureido)-N-(4-fluorophenyl)-4-(phenylamino)nicotinamide]	≤ 1	4 (≈ 10.2 µM)
CCNC(=O)Nc1cc(Nc2ccc(CCC(=O)OCC)cc2)c(C(=O)Nc2cccnc2)cn1 [Compound 131, ethyl 3-(4-(2-(3-ethylureido)-5-(pyridin-3-ylcarbamoyl)pyridin-4-ylamino)phenyl)propanoate]	8 (≈ 16.8 µM)	4 (≈ 8.39 µM)
CCNC(=O)Nc1cc(Nc2ccccc2)c(C(=O)Nc2ccn(C)n2)cn1 [Compound 59, 6-(3-ethylureido)-N-(1-methyl-1H-pyrazol-3-yl)-4-(phenylamino)nicotinamide]	8 (≈ 21.1 µM)	2 (≈ 5.27 µM)
CCNC(=O)Nc1cc(Nc2cnn(C)c2)c(C(=O)Nc2cccnc2)cn1 [Compound 113, 6-(3-ethylureido)-4-(1-methyl-1H-pyrazol-4-ylamino)-N-(pyridin-3-yl)nicotinamide]	32 (≈ 84.1 µM)	4 (≈ 10.5 µM)
CCNC(=O)Nc1cc(Nc2ccccc2Cl)c(C(=O)Nc2cccnc2)cn1 [Compound 105, 4-(2-chlorophenylamino)-6-(3-ethylureido)-N-(pyridin-3-yl)nicotinamide]	≤ 1	≤ 1
CCNC(=O)Nc1cc(Nc2ccccc2)c(C(=O)NCc2ccncc2)cn1 [Compound 51, 6-(3-ethylureido)-4-(phenylamino)-N-(pyridin-4-ylmethyl)nicotinamide]	32 (≈ 82 µM)	2 (≈ 5.12 µM)
CCNC(=O)Nc1cc(Nc2ccc(Cl)cc2)c(C(=O)Nc2cccnc2)cn1 [Compound 106, 4-(4-chlorophenylamino)-6-(3-ethylureido)-N-(pyridin-3-yl)nicotinamide]	≤ 1	≤ 1
CCNC(=O)Nc1cc(Nc2ccccc2)c(C(=O)Nc2cc(C)cc(F)c2)cn1 [Compound 93, 6-(3-ethylureido)-N-(3-fluoro-5-methylphenyl)-4-(phenylamino)nicotinamide]	≤ 1	2 (≈ 4.91 µM)
CCNC(=O)Nc1cc(Nc2ccccc2)c(C(=O)Nc2ccc(CCC(=O)N(C)C)cc2)cn1 [Compound 119, N-(4-(3-(dimethylamino)-3-oxopropyl)phenyl)-6-(3-ethylureido)-4-(phenylamino)nicotinamide]	≤ 1	≤ 1
CCNC(=O)Nc1cc(Nc2ccccc2)c(C(=O)Nc2cccc(OC)c2)cn1 [Compound 32, 6-(3-ethylureido)-N-(3-methoxyphenyl)-4-(phenylamino)nicotinamide]	4 (≈ 9.87 µM)	8 (≈ 19.7 µM)
CCNC(=O)Nc1cc(Nc2ccccc2)c(C(=O)Nc2ccc(C#N)nc2)cn1 [Compound 104, N-(6-cyanopyridin-3-yl)-6-(3-ethylureido)-4-(phenylamino)nicotinamide]	2 (≈ 4.98 µM)	≤ 1
CCNC(=O)Nc1cc(Nc2ccccc2OC)c(C(=O)Nc2cccnc2)cn1 [Compound 109, 6-(3-ethylureido)-4-(2-methoxyphenylamino)-N-(pyridin-3-yl)nicotinamide]	2 (≈ 4.92 µM)	≤ 1

Next, values leading:

MIC (S. aureus (ATCC 29213)) [µg/mL]	MIC (S. pyogenes (ATCC 51339)) [µg/mL]	Compound
≤ 1	≤ 1	CCNC(=O)Nc1cc(Nc2ccccc2)c(C(=O)Nc2cc(C(=O)OC)n(C)c2)cn1 [Compound 86, methyl 4-(6-(3-ethylureido)-4-(phenylamino)nicotinamido)-1-methyl-1H-pyrrole-2-carboxylate]
≤ 1	≤ 1	CCNC(=O)Nc1cc(Nc2ccccc2)c(C(=O)Nc2ccc(CCC(C)=O)cc2)cn1 [Compound 122, 6-(3-Ethylureido)-N-(4-(3-oxobutyl)phenyl)-4-(phenylamino)nicotinamide]
4 (≈ 9.84 µM)	2 (≈ 4.92 µM)	CCNC(=O)Nc1cc(Nc2ccc(OC)cc2)c(C(=O)Nc2cccnc2)cn1 [Compound 14, 6-(3-Ethylureido)-4-(4-methaxyphenylamino)-N-(pyridin-3-yl)nicotinamide]
≤ 1	≤ 1	CCNC(=O)Nc1cc(Nc2cccc(OC)c2)c(C(=O)Nc2cccnc2)cn1 [Compound 111, 6-(3-ethylureido)-4-(3-methoxyphenylamino)-N-(pyridin-3-yl)nicotinamide]
32 (≈ 107 µM)	16 (≈ 53.5 µM)	CCNC(=O)Nc1cc(Nc2ccccc2)c(C(N)=O)cn1 [Compound 61, 6-(3-Ethylureido)-4-(phenylamino)nicotinamide]
≤ 1	≤ 1	CCNC(=O)Nc1cc(Nc2ccc(C(=O)OC)cc2)c(C(=O)Nc2cccnc2)cn1 [Compound 96, methyl 4-(2-(3-ethylureido)-5-(pyridin-3-ylcarbamoyl)pyridin-4-ylamino)benzoate]
32 (≈ 97.7 µM)	16 (≈ 48.9 µM)	CCNC(=O)Nc1cc(Nc2ccccc2)c(C(=O)NCC)cn1 [Compound 8, N-Ethyl-6-(3-ethylureido)-4-(phenylamino)nicotinamide]
32 (≈ 80.9 µM)	8 (≈ 20.2 µM)	CCNC(=O)Nc1cc(Nc2c(C)noc2C)c(C(=O)Nc2cccnc2)cn1 [Compound 115, 4-(3,5-dimethylisoxazol-4-ylamino)-6-(3-ethylureido)-N-(pyridin-3-yl)nicotinamide]
2 (≈ 4.48 µM)	≤ 1	CCNC(=O)Nc1cc(Nc2ccccc2)c(C(=O)Nc2ccc(CCC(N)=O)cc2)cn1 [Compound 118, N-(4-(3-amino-3-oxopropyl)phenyl)-6-(3-ethylureido)-4-(phenylamino)nicotinamide]
2 (≈ 5.14 µM)	4 (≈ 10.3 µM)	CCNC(=O)Nc1cc(Nc2ccccc2)c(C(=O)Nc2ccc(C)cc2)cn1 [Compound 46, 6-(3-ethylureido)-4-(phenylamino)-N-p-tolylnicotinamide]
≤ 1	2 (≈ 5.08 µM)	CCNC(=O)Nc1cc(Nc2ccccc2)c(C(=O)Nc2cccc(F)c2)cn1 [Compound 56, 6-(3-ethylureido)-N-(3-fluorophenyl)-4-(phenylamino)nicotinamide]
4 (≈ 10.6 µM)	≤ 1	CCNC(=O)Nc1cc(Nc2ccccc2)c(C(=O)Nc2cncnc2)cn1 [Compound 60, 6-(3-ethylureido)-4-(phenylamino)-N-(pyrimidin-5-yl)nicotinamide]
≤ 1	≤ 1	CCNC(=O)Nc1cc(Nc2ccccc2)c(C(=O)Nc2cncc(OC)c2)cn1 [Compound 79, 6-(3-ethylureido)-N-(5-methoxypyridin-3-yl)-4-(phenylamino)nicotinamide]
2 (≈ 5.27 µM)	≤ 1	CCNC(=O)Nc1cc(Nc2ccccc2)c(C(=O)Nc2cnn(C)c2)cn1 [Compound 65, 6-(3-ethylureido)-N-(1-methyl-1H-pyrazol-4-yl)-4-(phenylamino)nicotinamide]
≤ 1	≤ 1	CCNC(=O)Nc1cc(Nc2ccccc2)c(C(=O)Nc2cncc(F)c2)cn1 [Compound 85, 6-(3-ethylureido)-N-(5-fluoropyridin-3-yl)-4-(phenylamino)nicotinamide]
≤ 1	≤ 1	CCNC(=O)Nc1cc(Nc2ccccc2)c(C(=O)Nc2cncc(C)c2)cn1 [Compound 91, 6-(3-ethylureido)-N-(5-methylpyridin-3-yl)-4-(phenylamino)nicotinamide]
2 (≈ 4.65 µM)	≤ 1	CCNC(=O)Nc1cc(Nc2ccccc2)c(C(=O)Nc2cnc3c(c2)ncn3C)cn1 [Compound 88, 6-(3-ethylureido)-N-(3-methyl-3H-imidazo[4,5-b]pyridin-6-yl)-4-(phenylamino)nicotinamide]
32 (≈ 82 µM)	8 (≈ 20.5 µM)	CCNC(=O)Nc1cc(Nc2ccccc2)c(C(=O)NCc2ccccn2)cn1 [Compound 52, 6-(3-ethylureido)-4-(phenylamino)-N-(pyridin-2-ylmethyl)nicotinamide]
≤ 1	≤ 1	CCNC(=O)Nc1cc(Nc2ccccc2)c(C(=O)Nc2ccc(CCCO)cc2)cn1 [Compound 117, 6-(3-ethylureido)-N-(4-(3-hydroxypropyl)phenyl)-4-(phenylamino)nicotinamide]
≤ 1	≤ 1	CCNC(=O)Nc1cc(Nc2ccccc2)c(C(=O)Nc2ccc(C)nc2)cn1 [Compound 81, 6-(3-ethylureido)-N-(6-methylpyridin-3-yl)-4-(phenylamino)nicotinamide]
≤ 1	8 (≈ 18.4 µM)	CCNC(=O)Nc1cc(Nc2ccccc2)c(C(=O)Nc2cncc(C(=O)OC)c2)cn1 [Compound 89, methyl 5-(6-(3-ethylureido)-4-(phenylamino)nicotinamido)nicotinate]
16 (≈ 39.4 µM)	≤ 1	CCNC(=O)Nc1cc(Nc2ccccc2)c(C(=O)Nc2ccc(=O)n(C)c2)cn1 [Compound 99, 6-(3-ethylureido)-N-(1-methyl-6-oxo-1,6-dihydropyridin-3-yl)-4-(phenylamino)nicotinamide]
